Measured values reported in patent publication US10757937B2, “Sulfonamides that activate ABA receptors” (The Regents of the University of California, priority 2014, dated 2020).
Like-named read-outs stand apart in the source and are kept apart here.

How the values were obtained:
Test in all cases: receptor-mediated PP2C (HAB1) inhibition in vitro assay
Assay type in all cases: biochemical
[1] = biological target: T1, PYL11 (Arabidopsis thaliana, UniProt Q9FJ50); settings: for remaining activity at 50 µM: 50 uM of the test compound
T1 construct: made in house; host or cells: E. coli BL21[DE3]pLysS
T1 sequence (Q9FJ50 1-161): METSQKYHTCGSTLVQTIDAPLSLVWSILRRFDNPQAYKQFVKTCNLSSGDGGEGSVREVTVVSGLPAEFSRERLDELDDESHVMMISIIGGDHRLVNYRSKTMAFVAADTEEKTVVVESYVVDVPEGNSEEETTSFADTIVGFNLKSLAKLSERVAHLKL
T1 sequence (Q9CAJ0 23-511 partner): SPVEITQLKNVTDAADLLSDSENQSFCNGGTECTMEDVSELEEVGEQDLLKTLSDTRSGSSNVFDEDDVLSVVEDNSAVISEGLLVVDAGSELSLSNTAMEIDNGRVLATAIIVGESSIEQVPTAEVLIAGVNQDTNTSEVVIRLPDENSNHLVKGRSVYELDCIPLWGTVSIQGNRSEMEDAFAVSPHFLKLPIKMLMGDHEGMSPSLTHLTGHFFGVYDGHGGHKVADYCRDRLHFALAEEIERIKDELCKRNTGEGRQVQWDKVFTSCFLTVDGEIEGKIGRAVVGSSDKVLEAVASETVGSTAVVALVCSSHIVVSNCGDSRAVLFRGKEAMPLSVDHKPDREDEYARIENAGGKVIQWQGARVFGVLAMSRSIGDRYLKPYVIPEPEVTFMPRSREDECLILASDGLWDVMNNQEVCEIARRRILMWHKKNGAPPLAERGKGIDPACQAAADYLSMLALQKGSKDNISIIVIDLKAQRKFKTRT
Method in brief: (§1)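 Compounds, tested at 25 μM or 50 uM with ABA at 10 uM, were incubated with recombinant receptor and 50 nM GST-HAB1 (2:1 ratio) in MnCl2-containing Tris-OAc buffer, pH 7.9. Phosphatase activity was followed by 4-methylumbelliferyl-phosphate fluorescence.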

[2] = biological target: T2, PYL10 (Arabidopsis thaliana, UniProt Q8H1R0); settings: for remaining activity at 50 µM: 50 uM of the test compound
T2 construct: 6X-His; made in house; host or cells: E. coli BL21[DE3]pLysS
T2 sequence (Q8H1R0 1-183): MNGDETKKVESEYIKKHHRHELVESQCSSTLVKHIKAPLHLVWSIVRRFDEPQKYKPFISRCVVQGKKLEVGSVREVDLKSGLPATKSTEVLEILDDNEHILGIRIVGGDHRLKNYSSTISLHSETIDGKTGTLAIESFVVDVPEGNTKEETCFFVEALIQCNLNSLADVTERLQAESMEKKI
T2 sequence (Q9CAJ0 23-511 partner): T1 sequence (Q9CAJ0 23-511 partner)
Method in brief: (§2)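 His-tagged receptors (MBP fusion for PYL11) at 2:1 ratio to 50 nM GST-HAB1 in 100 mM Tris-OAc pH 7.9, 100 mM NaCl, 1 mM MnCl2; 4-methylumbelliferyl-phosphate fluorogenic substrate. Compounds at 50 uM (ABA 10 uM); IC50 from dose curves for selected compounds.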

[3] = biological target: T3, PYL6 (Arabidopsis thaliana, UniProt Q8S8E3); settings: for remaining activity at 50 µM: 50 uM of the test compound
T3 construct: 6X-His; made in house; host or cells: E. coli BL21[DE3]pLysS
T3 sequence (Q8S8E3 1-215): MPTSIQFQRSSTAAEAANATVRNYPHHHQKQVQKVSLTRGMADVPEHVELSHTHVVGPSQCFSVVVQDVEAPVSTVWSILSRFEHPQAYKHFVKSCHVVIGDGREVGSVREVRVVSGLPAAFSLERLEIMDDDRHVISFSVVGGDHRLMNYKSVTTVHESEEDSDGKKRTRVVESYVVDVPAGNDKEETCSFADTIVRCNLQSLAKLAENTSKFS
T3 sequence (Q9CAJ0 23-511 partner): T1 sequence (Q9CAJ0 23-511 partner)
Method in brief: as §2

[4] = biological target: T4, PYL8 (Arabidopsis thaliana, UniProt Q9FGM1); settings: for remaining activity at 50 µM: 50 uM of the test compound; for remaining activity at 25 µM: compound at 25 μM, control without agonist = 100%
T4 construct: 6X-His; made in house; host or cells: E. coli BL21[DE3]pLysS
T4 sequence (Q9FGM1 1-188): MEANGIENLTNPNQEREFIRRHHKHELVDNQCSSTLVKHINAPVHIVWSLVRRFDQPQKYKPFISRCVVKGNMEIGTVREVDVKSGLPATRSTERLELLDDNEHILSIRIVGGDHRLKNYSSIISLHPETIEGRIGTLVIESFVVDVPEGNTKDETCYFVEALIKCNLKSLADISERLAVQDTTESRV
T4 sequence (Q9CAJ0 23-511 partner): T1 sequence (Q9CAJ0 23-511 partner)
Method in brief: (§3)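 Fluorogenic readout: 4-methylumbelliferyl-phosphate hydrolysis by 50 nM GST-HAB1 plus 2:1 His-receptor; Tris-OAc pH 7.9, NaCl, 1 mM MnCl2, β-ME. Compounds at 25 μM or 50 uM single dose; IC50 from dose curves for selected compounds.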

[5] = biological target: T5, PYL9 (Arabidopsis thaliana, UniProt Q84MC7); settings: for remaining activity at 50 µM: 50 uM of the test compound; for remaining activity at 25 µM: compound at 25 μM, control without agonist = 100%
T5 construct: 6X-His; made in house; host or cells: E. coli BL21[DE3]pLysS
T5 sequence (Q84MC7 1-187): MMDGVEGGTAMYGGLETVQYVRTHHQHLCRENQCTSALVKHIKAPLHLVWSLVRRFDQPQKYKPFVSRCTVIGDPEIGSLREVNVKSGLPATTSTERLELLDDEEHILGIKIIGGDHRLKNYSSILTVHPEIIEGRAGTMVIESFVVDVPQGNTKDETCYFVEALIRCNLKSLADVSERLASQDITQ
T5 sequence (Q9CAJ0 23-511 partner): T1 sequence (Q9CAJ0 23-511 partner)
Method in brief: as §3

[6] = biological target: T6, PYL5 (Arabidopsis thaliana, UniProt Q9FLB1); settings: for remaining activity at 50 µM: 50 uM of the test compound; for remaining activity at 25 µM: compound at 25 μM, control without agonist = 100%
T6 construct: 6X-His; made in house; host or cells: E. coli BL21[DE3]pLysS
T6 sequence (Q9FLB1 1-203): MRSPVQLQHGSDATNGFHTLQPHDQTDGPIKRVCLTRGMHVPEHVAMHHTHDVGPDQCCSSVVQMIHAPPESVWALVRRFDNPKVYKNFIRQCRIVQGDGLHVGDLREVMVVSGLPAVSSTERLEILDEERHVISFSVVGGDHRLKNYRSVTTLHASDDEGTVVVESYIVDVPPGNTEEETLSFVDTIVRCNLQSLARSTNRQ
T6 sequence (Q9CAJ0 23-511 partner): T1 sequence (Q9CAJ0 23-511 partner)
Method in brief: as §1

[7] = Table XII-B, calculated from dose curves, read-out: PP2C Activity (IC50 in uM) PYL11
[8] = Table XII-B, calculated from dose curves, read-out: PP2C Activity (IC50 in uM) PYL10
[9] = Table XII-B, calculated from dose curves, read-out: PP2C Activity (IC50 in uM) PYL6
[10] = Table XII-B, calculated from dose curves, read-out: PP2C Activity (IC50 in uM) PYL8
[11] = Table XII-B, calculated from dose curves, read-out: PP2C Activity (IC50 in uM) PYL9
[12] = Table XII-B, calculated from dose curves, read-out: PP2C Activity (IC50 in uM) PYL5
[13] = Table VII, read-out: PP2C Dose Curves PYL11 (IC50)
[14] = Table VII, read-out: PP2C Dose Curves PYL10 (IC50)
[15] = Table VII, read-out: PP2C Dose Curves PYL6 (IC50)
[16] = Table VII, read-out: PP2C Dose Curves PYL8 (IC50)
[17] = Table VII, read-out: PP2C Dose Curves PYL9 (IC50)
[18] = Table VII, read-out: PP2C Dose Curves PYL5 (IC50)

Row | SMILES | remaining activity at 50 µM [1] | IC50 [1, 7] | remaining activity at 50 µM [2] | IC50 [2, 8] | remaining activity at 50 µM [3] | IC50 [3, 9] | remaining activity at 50 µM [4] | IC50 [4, 10] | remaining activity at 50 µM [5] | IC50 [5, 11] | remaining activity at 50 µM [6] | IC50 [6, 12] | IC50 [1, 13] | IC50 [2, 14] | IC50 [3, 15] | IC50 [4, 16] | remaining activity at 25 µM [4] | IC50 [5, 17] | remaining activity at 25 µM [5] | IC50 [6, 18] | also measured
1 | N#Cc1ccc(CS(=O)(=O)NC(=O)C2(c3ccsc3)CCCCC2)cc1 [Compound 78, N-[(4-Cyanophenyl)methanesulfonyl]-1-(thiophen-3-yl)cyclohexane-1-carboxamide] | 9.9% | 0.19 µM | 25.6% | 0.25 µM | 44.9% | 25 µM | 14.3% | 0.073 µM | 6.1% | 0.038 µM | 68.5% | > 50 µM |  |  |  |  |  |  |  |  | 
2 | N#Cc1ccc(CS(=O)(=O)NC(=O)C2(c3cccc(C#N)c3)CC2)cc1 [Compound 50] |  |  |  |  |  |  |  |  |  |  |  |  | 2.52 µM | > 50 µM | 2.43 µM | 8.39 µM | 36% | 5.76 µM | 18% | 0.39 µM | remaining activity at 25 µM [6]: 7%; PYL5 agonist potency and selectivity ([6]; compounds with cyclopropyl rings at alpha carbon): potent and relatively selective PYL5 agonists
3 | CC1=CC(=O)CC(C)(C)[C@@]1(O)/C=C/C(C)=C\C(=O)O [ABA, Abscisic acid, reference compound] |  |  |  |  |  |  |  |  |  |  |  |  |  |  |  |  |  |  |  |  | PP2C Activity PYL11 ([1]; ABA (10 μM)): 5.7; PP2C Activity PYL10 ([2]; ABA (10 μM)): 13.8; PP2C Activity PYL6 ([3]; ABA (10 μM)): 10.9; PP2C Activity PYL8 ([4]; ABA (10 μM)): 7.0; PP2C Activity PYL9 ([5]; ABA (10 μM)): 6.3; PP2C Activity PYL5 ([6]; ABA (10 μM)): 4.9
4 | N#Cc1ccc(CS(=O)(=O)NC(=O)C(C2CCCCC2)C2CCCCC2)cc1 [Compound 73, N-[(4-Cyanophenyl)methanesulfonyl]-2,2-cyclohexylacetamide] | 26.9% | 22.4 µM | 85.7% | > 50 µM | 91% | > 50 µM | 66.1% | > 50 µM | 56.3% | > 50 µM | 110% | > 50 µM |  |  |  |  |  |  |  |  | 
5 | CC(C)(C(=O)NS(=O)(=O)Cc1ccc(C#N)cc1)c1ccccc1 [Compound 23] |  |  |  |  |  |  |  |  |  |  |  |  | 7.84 µM | > 50 µM | > 50 µM | 48.9 µM |  | 1.88 µM |  | 39.6 µM | 
6 | CCC(CC)(C(=O)NS(=O)(=O)Cc1ccc([N+](=O)[O-])cc1)c1ccccc1 [Compound 19] |  |  |  |  |  |  |  |  |  |  |  |  | 2.44 µM | 50.8 µM | 57.1 µM | 9.65 µM | 36% | 3.9 µM | 15% | > 50 µM | remaining activity at 25 µM [6]: 85%
7 | N#Cc1ccc(CS(=O)(=O)NC(=O)C2(c3ccccc3)CCCCC2)cc1 [Compound 69, N-[(4-Cyanophenyl)methanesulfonyl]-1-phenylcyclohexane-1-carboxamide] | 13.5% | 2.53 µM | 27.3% | 1.69 µM | 72.6% | > 50 µM | 14.7% | 0.75 µM | 5.8% | 0.135 µM | 119% | > 50 µM |  |  |  |  |  |  |  |  | 
8 | O=C(NS(=O)(=O)Cc1ccc([N+](=O)[O-])cc1)C1(c2ccccc2)CCCCC1 [Compound 63] | 92.6% | > 50 µM | 88.9% | > 50 µM | 108% | > 50 µM | 96.6% | > 50 µM | 75.5% | > 50 µM | 107% | > 50 µM |  |  |  |  |  |  |  |  | 
9 | N#Cc1ccc(CS(=O)(=O)NC(=O)C2(c3ccc(F)cc3)CCCC2)cc1 [Compound 24] |  |  |  |  |  |  |  |  |  |  |  |  | 4.09 µM | 14.8 µM | > 50 µM | 6.38 µM | 21% | 0.6 µM | 10% | > 50 µM | PYL9 agonist potency and selectivity ([5]; five- and six-membered rings at alpha carbon): potent and relatively selective PYL9 agonists; remaining activity at 25 µM [6]: 99%
10 | N#Cc1ccc(CS(=O)(=O)NC(=O)C2(c3cccs3)CCCCC2)cc1 [Compound 75, N-[(4-Cyanophenyl)methanesulfonyl]-1-(thiophen-2-yl)cyclohexane-1-carboxamide] | 9.8% | 0.39 µM | 27% | 0.38 µM | 57.2% | > 50 µM | 14.9% | 0.134 µM | 6.9% | 0.083 µM | 81.8% | > 50 µM |  |  |  |  |  |  |  |  | 
11 | N#Cc1ccc(CS(=O)(=O)NC(=O)C2(c3ccc(F)cc3)CC2)cc1 [Compound 35] |  |  |  |  |  |  |  |  |  |  |  |  | 3.29 µM | > 50 µM | 34.7 µM | > 50 µM | 62% | 27.2 µM | 49% | 3.91 µM | remaining activity at 25 µM [6]: 20%
12 | CC(C)(C(=O)NS(=O)(=O)Cc1ccc(C#N)cc1)c1ccc(Cl)cc1 [Compound 6] |  |  |  |  |  |  |  |  |  |  |  |  | 4.16 µM | > 50 µM | > 50 µM | 26.3 µM | 52% | 8.96 µM | 32% | > 50 µM | remaining activity at 25 µM [6]: 21%
13 | CC1CCC(C(=O)NS(=O)(=O)Cc2ccc(C#N)cc2)(c2ccc(F)cc2)CC1 (stereo not drawn) [Compound 67, N-[(4-Cyanophenyl)methanesulfonyl]-1-(4-fluorophenyl)-4-methylcyclohexane-1-carboxamide] | 14.7% | 3.13 µM | 48.2% |  | 46.6% |  | 25.8% | 9.6 µM | 8% | 2.13 µM | 43% | 25.3 µM |  |  |  |  |  |  |  |  | 
